Source: PMC11613437, “Prioritization of Eleven-Nineteen-Leukemia Inhibitors as Orally Available Drug Candidates for Acute Myeloid Leukemia” (Journal of Medicinal Chemistry, 2024)

Columns and labels:
[1] = biological target: T1, ENL YEATS (Homo sapiens, UniProt Q03111); assay: AlphaScreen assay with biotinylated ENL-S1 peptide; conditions: inhibition of ENL YEATS binding to ENL-S1 peptide; mean ± SD, n = 3; read-out: Alpha IC50 (nM) for ENL YEATS
T1 construct: final concentrations of 100 nM His-ENL YEATS, 100 nM Biotin-ENL-S1
T1 sequence (Q03111 1-138 limits assumed): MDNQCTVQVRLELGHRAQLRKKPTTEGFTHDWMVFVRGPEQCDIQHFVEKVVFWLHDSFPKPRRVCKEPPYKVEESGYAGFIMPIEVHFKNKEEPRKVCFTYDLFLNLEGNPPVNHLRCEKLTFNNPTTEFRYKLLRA
Method: The AlphaScreen assay was carried out in 384-well plates. Manual assay setup was performed in a 40 μL reaction buffer (50 mM HEPES pH 7.4, 100 mM NaCl, 0.1% bovine serum albumin, and 0.05% CHAPS) with final concentrations of 100 nM His-ENL YEATS, 100 nM Biotin-ENL-S1, and 20 μg/mL of AlphaScreen donor and acceptor beads. The protein, peptide, and compounds were mixed and incubated for 1 h at room temperature and then incubated for 30 min in dark after adding the α beads. AlphaScreen-signals were detected by a multimode microplate reader (BioTeK Synergy Neo2) equipped with an Alpha-laser (PerkinElmer).

[2] = biological target: T2, NLuc-ENL YEATS (Homo sapiens, UniProt Q03111); assay: ENL-NanoBRET inhibitor competitive assay; assay type: cell-based; conditions: for IC50: HEK293T cells stably expressing NLuc-ENL YEATS, 1 μM Tracer 2, 2 h, mean ± SD, n = 3; for reduction in NanoBRET signal: concentrations up to 80 μM
T2 construct: DNA encoding the ENL YEATS domain (aa 1–148) was cloned into an NLuc containing plasmid; expressed in transfected cells
T2 sequence (Q03111 1-148): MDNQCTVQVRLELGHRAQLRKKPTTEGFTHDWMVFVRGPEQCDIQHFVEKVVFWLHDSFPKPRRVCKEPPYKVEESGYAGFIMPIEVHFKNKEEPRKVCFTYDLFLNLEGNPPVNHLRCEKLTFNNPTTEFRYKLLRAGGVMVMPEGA
Method: Approximately 1.8 × 10^4 HEK293T cells (100 μL) stably expressing NLuc-ENL YEATS were seeded into a white nonbinding 96-well assay plate and incubated overnight at 37 °C in a humidified 5% CO2 atmosphere. After removal of the medium, the cells were added with a tracer (with or without excess of unlabeled compound) in the Opti-MEM with 0.1% DMSO. After incubation at 37 °C for 2 h the assay plate was equilibrated at room temperature for 15 min. For BRET detection, the NanoGlo Substrate and the extracellular NanoLuc inhibitor (Promega, N2160) were diluted with Opti-MEM as described in protocol to afford detection solution. 50 μL of the detection solution was added per well and the plate was incubated for 3 min at room temperature. The donor emission was measured at 450 nm and the acceptor emission at 610 nm using a BioTek SYNERGY neo2 multimode reader. The BRET ratio was calculated according to the following formula: BRET ratio = [(acceptorsample/donorsample) – (acceptorno-tracer control/donorno-tracer control)] × 1000.
Sample procedures were followed for cell seeding as described in the previously described tracer affinity assay. After removal of the medium, the cells were added with a tracer in the medium (1.1 μM, 100 μL) and varied concentrations of a test compound in 0.1% DMSO (10 μL). The plate was thoroughly mixed on an orbital shaker for 15 s at 900 rpm. Then the cells were incubated at 37 °C, 5% CO2 for 2 h for BRET ratio detection as described previously.

[3] = Log D at pH 7.4 (chromatographic procedure); assay type: physicochemical; conditions: n-octanol / aqueous buffer pH 7.4, pH 7.4
Method: Log D at 7.4, which is a partition coefficient between n-octanol and aqueous buffer pH 7.4 of the compounds was measured on the chromatographic procedure whose condition was developed based on a published method.[35]

[4] = In vitro stability assay in human plasma; assay type: in vitro ADME; conditions: 37 °C; for Plasma % of parent compound remaining (after 2h incubation): 5 μM, mean ± SD, n = 3
Method: The in vitro stability analysis of a test compound was initiated by the addition of the test compound to 90 μL of prewarmed (37 °C) human plasma with a final concentration of 5 μM. All assays were performed in a plate shaker at 37 °C and conducted in triplicate. At 0, 5, 15, 30, 60, and 120 min, 400 μL acetonitrile (with the internal standard diclofenac as 10 μg/mL) was added to deproteinize the plasma and terminate the reaction, the remaining compound was then analyzed by HPLC-MS/MS.

[5] = In vitro metabolic stability assay in HLM; assay type: in vitro ADME, human; conditions: for half-life / half-life at 1 h: read-out: Liver Microsome t1/2; for parent compound remaining after 60 min incubation in HLM: in the presence of NADPH
Method: At 0, 5, 15, 30, 45, and 60 min, 200 μL acetonitrile (with the internal standard diclofenac as 10 μg/mL) was added to terminate the reaction, the remaining compound was analyzed by HPLC-MS/MS.

[6] = biological target: T3, ENL YEATS domain (Homo sapiens, UniProt Q03111); assay: Biolayer interferometry (BLI); assay type: binding; conditions: biotinylated ENL YEATS on SSA biosensors, 1:1 model
T3 construct: Biotinylated-ENL YEATS was immobilized onto SSA biosensors; biotin (biotinylated)
T3 sequence (Q03111 1-138 limits assumed): T1 sequence (Q03111 1-138 limits assumed)
Method: Superstreptavidin biosensors were first incubated in an assay buffer (20 mM Tris, pH 7.8, 300 mM NaCl, 0.05% Tween 20, 0.1% DMSO) for 15 min. Sensors were coated with 40–60 μg/mL of biotinylated ENL for 15 min at room temperature. Inhibitors were serially diluted across a 96-well plate in a volume of 200 μL. Association of samples to either ENL- or uncoated reference sensors was measured over 300 s and dissociation over 300 s with baseline measurements (buffer only) for 300 s. All assays were run with continuous 1000 rpm shaking. Data were analyzed using the OctetRED data analysis software with reference subtraction in which reference uncoated sensors and reference samples were subtracted. Then, global kinetic fit was performed for all sonogram curves with a 1:1 model to get KD values.

[7] = Cell toxicity assay (CCK-8), MOLM-13; assay type: cell-based; conditions: human, MOLM-13 cells, 8 day treatment, n = 3; read-out: CC50 MOLM-13 (Cellular IC50, 8-days incubation)
Method: (§1) Approximately 1 × 10^4 JURKAT, MOLM-13, MV4-11 and HEK293T cells in RPMI 1640 (no phenol red) (100 μL) were added to a 96-well plate and treated with DMSO or a compound at indicated concentrations for 72 h or 8 days. Cell viability was measured using the CCK-8 kit (Abcam, ab228554) according to the manufacturer’s instructions.

[8] = Cell toxicity assay (CCK-8), MV4-11; assay type: cell-based; conditions: human, MV4-11 cells, 8 day treatment, n = 3; read-out: CC50 MV4-11 (Cellular IC50, 8-days incubation)
Method: as §1

[9] = Cell toxicity assay (CCK-8), Jurkat; assay type: cell-based; conditions: human, Jurkat cells; 8 day treatment, n = 3; read-out: CC50 Jurkat (Cellular IC50, 8-days incubation)
Method: as §1

[10] = Cell toxicity assay (CCK-8), HEK293T; assay type: cell-based; conditions: human, HEK293T cells; 72 h (3-days) treatment, n = 3; read-out: CC50 HEK293T (Cellular IC50, 3-days incubation)
Method: as §1

[11] = test system: MOLM-13 cells; assay: Cell toxicity assay (CCK-8), MOLM-13; assay type: cell-based; conditions: Homo sapiens, MOLM-13; 64 μM, 72-h treatment, Figure S8f; read-out: growth inhibition in MOLM-13 cells
Method: as §1

[12] = human, human liver microsomes, pH 7.4, HLM 0.5 mg/mL, NADPH 1 mM, mean ± SD, n = 3, read-out: Liver Microsome CLint, pred
[13] = human, human liver microsomes, pH 7.4, HLM 0.5 mg/mL, NADPH 1 mM, mean ± SD, n = 3

Row | Structure (SMILES) | IC50 [2] [nM] | chromatographic logD [3] | Plasma % of parent compound remaining (after 2h incubation) [4] [%] | CLint scaled at 1 h [5, 12] [mL/min/kg] | half-life at 1 h [5, 13] [h] | degradation after 2 h incubation in human plasma [4] | parent compound remaining after 60 min incubation in HLM [5] | further results
1 | CC(C)[C@H]1CCN1Cc1ccc(CNC(=O)c2ccc3nncn3c2)cc1 [13 (R), (R)-N-(4-((2-Isopropylazetidin-1-yl)methyl)benzyl)-[1,2,4]triazolo[4,3-a]pyridine-6-carboxamide] | – | – | – | – | – | – | – | IC50 [1]: 2260 nM
2 | CC(C)[C@@H]1CCN1Cc1ccc(CNC(=O)c2ccc3nncn3c2)cc1 [13 (S), (S)-N-(4-((2-isopropylazetidin-1-yl)methyl)benzyl)-[1,2,4]triazolo[4,3-a]pyridine-6-carboxamide] | – | – | – | – | – | – | – | IC50 [1]: 970 nM
3 | CC(C)[C@@H]1CCN1Cc1cc2cnc(NC(=O)c3ccc4nncn4c3)cc2[nH]1 [SR-C-107 (S), (S)-N-(2-((2-Isopropylazetidin-1-yl)methyl)-1H-pyrrolo[3,2-c]pyridin-6-yl)-[1,2,4]triazolo[4,3-a]pyridine-6-carboxamide] | 5670 | 0.89 | 89.11 ± 6.07 | 10.9 | 2.76 ± 0.639 | – | – | IC50 [1]: 1380 nM; half-life [5, 13]: 2.75 h
4 | O=C(Nc1cc2[nH]c(CN3CCC3C3CC3)cc2cn1)c1ccc2nncn2c1 [YR-D-121] | 2360 | 0.13 | 82.54 ± 6.09 | 3.51 | 8.29 ± 0.671 | approximately 15% | over 90% | Kd [6]: 1340 nM; IC50 at 8 days [7]: 6960 nM; IC50 at 8 days [8]: 14200 nM; IC50 at 8 days [9]: > 64000 nM; IC50 at 72 h [10]: > 64000 nM
5 | CSc1ccc(CNC(=O)c2ccc3nncn3c2)cc1 [inhibitor 1] | 1260 | 1.19 | 84.81 ± 6.84 | 22.2 ± 4.76 | 1.34 ± 0.292 | approximately 15% | about 60% | –
6 | CN(C)Cc1ccc(CNC(=O)c2ccc3nncn3c2)cc1 [inhibitor 7] | > 80000 | 0.28 | – | – | – | – | – | –
7 | O=C(NCc1ccc(CN2CCCCC2)cc1)c1ccc2nncn2c1 [inhibitor 8] | > 80000 | 0.11 | – | – | – | – | – | reduction in NanoBRET signal [2]: minimal reductions in NanoBRET signal
8 | O=C(NCc1ccc(CN2CCOCC2)cc1)c1ccc2nncn2c1 [inhibitor 9] | > 80000 | -0.1 | – | – | – | – | – | reduction in NanoBRET signal [2]: minimal reductions in NanoBRET signal
9 | O=C(NCc1ccc(CN2CCC2)cc1)c1ccc2nncn2c1 [inhibitor 11] | – | 0.17 | – | – | – | – | – | reduction in NanoBRET signal [2]: minimal reductions in NanoBRET signal
10 | CC1CCN1Cc1ccc(CNC(=O)c2ccc3nncn3c2)cc1 (stereo not shown) [inhibitor 12] | 1340 | -0.07 | 85.32 ± 3.24 | 21.6 ± 1.89 | 1.35 ± 0.117 | approximately 15% | about 60% | –
11 | CC(C)(C)C1CCN1Cc1ccc(CNC(=O)c2ccc3nncn3c2)cc1 (stereo not shown) [inhibitor 14] | > 20000 | 0.42 | 97.60 ± 0.74 | – | – | – | – | CLint scaled [5, 12]: 2.42 ± 0.14 mL/min/kg; half-life [5, 13]: 12 ± 0.741 h; inhibition at 64 µM [11]: ~30%
12 | O=C(NCc1cccc(CN2CCC2)c1)c1ccc2nncn2c1 [inhibitor 15] | 3260 | 0.29 | – | 6.93 | 4.23 ± 0.603 | – | over 90% | –
13 | O=C(NCc1ccc(CNc2ncc(F)cn2)cc1)c1ccc2nncn2c1 [inhibitor 24] | – | 0.96 | 88.42 ± 4.98 | 9.95 | 2.92 ± 0.22 | approximately 15% | – | –
